Assay results published in patent US11174267B2, “Spiroindolinones and therapeutic uses thereof” (The Regents of the University of California, priority 2015, dated 2021).
Where two headings read alike, the source gives them in different places.

How the values were obtained:
Candida glabrata = test: EC50 in combination with fluconazole, Candida glabrata; assay type: cell-based; details: [fluconazole] = 128 μg/mL
Source text: (§1) Strains and growth condition. The wild-type Candida albicans strains used were SC5314 and CaSS1. Cdr1 heterozygous were from Merck Sharp & Dohme Corp. Double Barcoded (DBC) library of heterozygous Candida albicans mutants (version 2013A). Cdr1 deficient mutant was obtained by counterselection of the GRACE library strain on 5-Fluoroorotic Acid (5-FOA) containing plate. Clinical isolated resistant C. albicans were from Dr. David Rogers. Cryptococcus neoformans var. grubii H99 (ATCC 208821) and Candida glabrata BG2, a fluconazole-resistant clinical isolate, were used. Yeast strains were cultured at 30° C. in synthetic complete (SC) medium containing 2% glucose.
(§2) C. albicans was grown in SC medium overnight and then diluted to an effective OD600 of 0.0625. Serial ten-fold dilutions of the test compounds (0.15-1500 μM) were prepared in DMSO in 1.5 mL Eppendorf tubes. […] The plates were incubated in a rotary shaker/incubator at 30° C. for 16 h. The contents of each well was resuspended with a micropipettor and a 20 μL aliquot was added to a polystyrene cuvette and diluted with 680 μL of deionized water. The suspension was triturated again immediately before measuring the absorbance at 600 nm (OD600) for cell densities. EC50 values were determined by fitting to the Hill equation using the Excel-based tool ED50PLUS v1.0 (Mario H. Vargas) or using Mathematica. Similar procedures were used for Candida glabrata and Cryptococcus neoformans.
(§3) Because fungal drug-efflux ABC transporters are conserved, Cdr1 inhibitors that target the conserved regions of the pumps are expected to inhibit the drug efflux pumps in all fungi including C. albicans. […] Therefore, those spiroindolinones are candidates for combination antifungal therapy with azoles against invasive infections of not only C. albicans, but also other pathogenic fungi.

Cryptococcus neoformans = test: EC50 in combination with fluconazole, Cryptococcus neoformans; assay type: cell-based; details: [fluconazole] = 4 μg/mL
Source text: as §1, §2, §3

[1] = system: susceptible strain (HLY4123) of C. albicans; test: Dose-response with fluconazole (0.25 μg/mL) against susceptible strain; assay type: cell-based, Candida albicans; details: Candida albicans, with fluconazole 0.25 μg/mL; strain HLY4123
Protocol: as §2

[2] = system: Resistant Candida albicans (clinical isolate-45); test: EC50 in combination with fluconazole, resistant C. albicans; assay type: cell-based
C. albicans = test: Drug susceptibility assay in combination with azole antifungals and other Cdr1/Mdr1 substrates; assay type: cell-based, Candida albicans; details: for EC50 / MIC50: Candida albicans
Protocol: Drug susceptibility assay. All the assays were carried out with SC medium in 24-well plates. […] Plates were incubated at 30° C. for 15 h. Cell growth was measured by reading absorbance at 600 nm. […] EC50 values were calculated by nonlinear regression curve fit of log (concentration) versus the % cell growth.
Compound 1 was also studied to determine if it can synergize with all azole antifungals and non-azole drugs that are known Cdr1 substrates. […] The effective concentrations of the spiroindolinone used are at nM levels, much lower than that of substrates (azoles for example), therefore ruling out competitive inhibition as the mechanism. […] With further study it is possible to determine drug-target interaction sites on Cdr1.

[3] = system: resistant clinical isolates of C. albicans; test: EC50 against selected resistant clinical isolates with fluconazole; assay type: cell-based; details: Candida albicans, fluconazole 64 μg/mL
Protocol: as §2
(§4) (Flowers, S. A., et al. Eukaryotic Cell 2012, 11, 1289-1299.) The strains grow at dramatically different rates.

[4] = system: resistant clinical isolates of C. albicans; test: Screen of resistant clinical isolates, single dose, broth microdilution (growth OD600); assay type: cell-based, Candida albicans; details: compound 25 3 μM + fluconazole 64 μg/mL, 16 h
Source text: as §4

Cdr1 = target: T1, Cdr1 (Candida albicans, UniProt Q5ANA3); test: Efflux of Rhodamine 6G (Cdr1 efflux assay); assay type: cell-based; details: C. albicans SC5314; R6G 10 μM; Compound 1 0.3, 3 and 30 μM
T1 construct: endogenous in cells; host or cells: Candida albicans SC5314 (wild type)
Protocol: Efflux of Rhodamine 6 G. Efflux of R6G was measured generally base on a method described previously by Shukla (cited below). Briefly, C. albicans SC5314 grown overnight at 30° C. in SC medium were transferred to fresh SC medium with a 1:50 dilution and grown at 30° C. with constant shaking for about 5 h. Cells were then pelleted, washed twice with phosphate-buffered saline (PBS), and resuspended in PBS as about 3 OD600 nm. The cells were then deenergized for 45 min in […] 2-deoxy-D-glucose. The cells were pelleted, washed and resuspended in PBS as 3 OD600 nm, to which compounds (30 μM or noted) and R6G (10 μM) were added successively and incubated at 30° C. for 40 min. Cells were collected, washed and resuspended in PBS with or without compounds and incubated at 30° C. Two percent glucose was added at time point 20 min to initiate the energy-dependent efflux. Samples were taken out every 10 min and the absorption of the supernatant was detected at 527 nm.
To further determine if the spiroindolinone functions by inhibiting Cdr1, the activity of efflux pumps was determined by monitoring the efflux of R6G, a fluorescent compound that is used for Cdr1 efflux assay in C. albicans. […] Extracellular R6G concentrations were quantified by measuring the absorbance of the supernatant at 527 nm. […]

[5] = MDR1, with clotrimazole 0.221 μg/mL
[6] = MDR1, with fluconazole 0.500 μg/mL
[7] = MDR1, with itraconazole 0.004 μg/mL
[8] = MDR1, with ketoconazole 0.289 μg/mL
[9] = MDR1, with miconazole 0.031 μg/mL
[10] = MDR1, with vorizonazole 0.006 μg/mL

T1 sequence (Q5ANA3 whole entry): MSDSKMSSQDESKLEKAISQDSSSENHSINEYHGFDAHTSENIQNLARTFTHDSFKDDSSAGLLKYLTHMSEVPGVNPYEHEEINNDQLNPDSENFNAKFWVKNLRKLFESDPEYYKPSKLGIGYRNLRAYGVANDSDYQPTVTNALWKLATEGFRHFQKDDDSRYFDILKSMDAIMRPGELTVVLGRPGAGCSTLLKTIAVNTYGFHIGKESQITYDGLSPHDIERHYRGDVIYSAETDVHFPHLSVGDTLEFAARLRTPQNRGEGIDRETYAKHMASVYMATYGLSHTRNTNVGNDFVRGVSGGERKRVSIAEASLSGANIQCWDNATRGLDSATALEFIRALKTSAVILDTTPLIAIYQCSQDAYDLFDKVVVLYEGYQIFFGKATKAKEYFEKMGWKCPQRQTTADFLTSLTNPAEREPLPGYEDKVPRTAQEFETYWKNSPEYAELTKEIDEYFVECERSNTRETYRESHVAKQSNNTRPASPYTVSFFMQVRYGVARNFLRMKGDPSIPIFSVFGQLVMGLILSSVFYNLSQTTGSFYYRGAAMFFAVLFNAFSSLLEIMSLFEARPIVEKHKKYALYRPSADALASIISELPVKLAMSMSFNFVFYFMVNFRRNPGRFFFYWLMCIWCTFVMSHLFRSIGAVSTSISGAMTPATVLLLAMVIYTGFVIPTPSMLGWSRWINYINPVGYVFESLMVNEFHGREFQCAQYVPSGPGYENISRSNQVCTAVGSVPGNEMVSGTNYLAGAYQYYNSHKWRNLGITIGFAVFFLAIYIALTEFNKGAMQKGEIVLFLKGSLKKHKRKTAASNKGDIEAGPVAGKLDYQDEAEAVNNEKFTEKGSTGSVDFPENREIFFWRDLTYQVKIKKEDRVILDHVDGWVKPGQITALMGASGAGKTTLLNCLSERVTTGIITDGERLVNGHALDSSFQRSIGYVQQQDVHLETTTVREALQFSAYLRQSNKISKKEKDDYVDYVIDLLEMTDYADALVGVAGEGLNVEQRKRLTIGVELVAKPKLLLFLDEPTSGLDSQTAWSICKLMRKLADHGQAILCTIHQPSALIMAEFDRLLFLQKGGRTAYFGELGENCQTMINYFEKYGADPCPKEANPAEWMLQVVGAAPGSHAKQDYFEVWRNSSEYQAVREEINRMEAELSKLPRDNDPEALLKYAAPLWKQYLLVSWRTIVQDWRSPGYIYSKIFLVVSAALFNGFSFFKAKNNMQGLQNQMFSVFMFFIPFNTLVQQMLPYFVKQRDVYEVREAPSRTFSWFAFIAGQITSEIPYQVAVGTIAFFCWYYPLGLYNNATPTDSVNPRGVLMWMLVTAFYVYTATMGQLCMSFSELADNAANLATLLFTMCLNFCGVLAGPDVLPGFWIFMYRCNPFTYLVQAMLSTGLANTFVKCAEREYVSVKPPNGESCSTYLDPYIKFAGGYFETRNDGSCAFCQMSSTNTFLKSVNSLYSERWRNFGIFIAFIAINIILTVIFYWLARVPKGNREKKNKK

With Cc1c(Cl)ccc2c1NC(=O)[C@@]21[C@H]2C(=O)N(c3ccccc3)C(=O)[C@H]2[C@H]2CN(C(=O)OCc3ccccc3)CCN21 (racemic) [Compound 25, (±)-benzyl (3R,3a′R,3b'S,9a'S)-6-chloro-7-methyl-1′,2,3′-trioxo-2′-phenyl-2′,3′,3a′,3b′,4′,6′,7′,9a′-octahydrospiro[indoline-3,9′-pyrrolo[3′,4′:3,4]pyrrolo[1,2-a]pyrazine]-5′(1′H)-carboxylate] the EC50 (Candida glabrata) was > 30000 nM, the EC50 (Cryptococcus neoformans) was 192 nM and the EC50 [1] was 0.3 nM. It also gave an EC50 ([2]; read-out: EC50 Resistant Candida albicans; C. albicans clinical isolate-45; [fluconazole] = 64 μg/mL) of 400 nM, an EC50 (C. albicans; [5]) of 150 nM and an EC50 (C. albicans; [6]) of 11 nM. It also gave an EC50 (C. albicans; MDR1, with isavuconazole 0.0006 μg/mL) of 4 nM, an EC50 (C. albicans; [7]) of 190 nM and an EC50 (C. albicans; [8]) of 14 nM. It also gave an EC50 (C. albicans; [9]) of 240 nM, an EC50 (C. albicans; [10]) of 62 nM and an MIC50 (C. albicans; with clotrimazole 0.221 μg/mL) of 4.1 µM. For the same compound, the MIC50 (C. albicans; with fluconazole 0.500 μg/mL) was 0.84 µM, the MIC50 (C. albicans; with isavuconazole 0.0006 μg/mL) was 0.11 µM and the MIC50 (C. albicans; with itraconazole 0.004 μg/mL) was 2.5 µM. For the same compound, the MIC50 (C. albicans; with ketoconazole 0.289 μg/mL) was 2.3 µM, the MIC50 (C. albicans; with miconazole 0.031 μg/mL) was 25 µM and the MIC50 (C. albicans; with vorizonazole 0.006 μg/mL) was 1.9 µM. It also gave an EC50 ([3]; read-out: Potency Cpd 25 EC50, clinical isolate 17) of 5 nM, an EC50 ([3]; read-out: Potency Cpd 25 EC50, clinical isolate 23) of 53 nM and an EC50 ([3]; read-out: Potency Cpd 25 EC50, clinical isolate 26) of 2 nM. It also gave an EC50 ([3]; read-out: Potency Cpd 25 EC50, clinical isolate 33) of 11 nM, an EC50 ([3]; read-out: Potency Cpd 25 EC50, clinical isolate 36) of 5 nM and an EC50 ([3]; read-out: Potency Cpd 25 EC50, clinical isolate 45) of 16 nM. For the same compound, the “Growth (OD600) +Cpd25 + Fluc” value ([4]; clinical isolate 15) was 2.64, the “Growth (OD600) +Cpd25 + Fluc” value ([4]; clinical isolate 16) was 0.43 and the “Growth (OD600) +Cpd25 + Fluc” value ([4]; clinical isolate 17) was 0.79. The “Growth (OD600) +Cpd25 + Fluc” value ([4]; clinical isolate 21) was 2.02, the “Growth (OD600) +Cpd25 + Fluc” value ([4]; clinical isolate 22) was 1.28 and the “Growth (OD600) +Cpd25 + Fluc” value ([4]; clinical isolate 23) was 0.60. The “Growth (OD600) +Cpd25 + Fluc” value ([4]; clinical isolate 25) was 1.59, the “Growth (OD600) +Cpd25 + Fluc” value ([4]; clinical isolate 26) was 0.83 and the “Growth (OD600) +Cpd25 + Fluc” value ([4]; clinical isolate 30) was 5.38. The “Growth (OD600) +Cpd25 + Fluc” value ([4]; clinical isolate 33) was 0.88, the “Growth (OD600) +Cpd25 + Fluc” value ([4]; clinical isolate 36) was 1.07 and the “Growth (OD600) +Cpd25 + Fluc” value ([4]; clinical isolate 41) was 6.52. For the same compound, the “Growth (OD600) +Cpd25 + Fluc” value ([4]; clinical isolate 45) was 1.03 and the “Growth (OD600) +Cpd25 + Fluc” value ([4]; clinical isolate 49) was 11.29.
For Cc1c(Cl)ccc2c1NC(=O)[C@]21N[C@H](Cc2ccccc2)[C@@H]2C(=O)N(c3ccc(F)cc3)C(=O)[C@@H]21 (racemic) [Compound 1, (±)-(3R,3′R,3a′R,6a'S)-3′-benzyl-6-chloro-5′-(4-fluorophenyl)-7-methyl-2′,3′,3a′,6a′-tetrahydro-4′H-spiro[indoline-3,1′-pyrrolo[3,4-c]pyrrole]-2,4′,6′(5′H)-trione], the EC50 (Candida glabrata) was 640 nM, the EC50 (Cryptococcus neoformans) was > 30000 nM and the EC50 [1] was 11 nM. For the same compound, the EC50 ([2]; C. albicans clinical isolate-45; [fluconazole] = 64 μg/mL; read-out: EC50 Resistant Candida albicans) was 440 nM, the EC50 (C. albicans; [5]) was 500 nM and the EC50 (C. albicans; [6]) was 100 nM. For the same compound, the EC50 (C. albicans; [7]) was 700 nM, the EC50 (C. albicans; [8]) was 830 nM and the EC50 (C. albicans; [9]) was 990 nM. It also gave an EC50 (C. albicans; [10]) of 310 nM, an MIC50 (C. albicans; with clotrimazole 0.221 μg/mL) of 3.7 µM and an MIC50 (C. albicans; with fluconazole 0.500 μg/mL) of 1.3 µM. It also gave an MIC50 (C. albicans; with itraconazole 0.004 μg/mL) of 1.7 µM, an MIC50 (C. albicans; with ketoconazole 0.289 μg/mL) of 7.4 µM and an MIC50 (C. albicans; with miconazole 0.031 μg/mL) of 3.6 µM. The MIC50 (C. albicans; with vorizonazole 0.006 μg/mL) was 4.5 µM, the “susceptibility of C. albicans to azole antifungals” value (C. albicans; all azole antifungals tested) was “increase the susceptibility” and the “growth inhibitory activity of cycloheximide” value (C. albicans; cycloheximide, substrate of the Cdr1 efflux pump) was “enhance the growth inhibitory activity”. The “growth inhibitory activity of thiolutin” value (C. albicans; thiolutin, substrate of Mdr1) was “did not enhance the growth inhibitory activity” and the “energy dependent efflux of R6G” value (Cdr1) was “almost totally inhibited”.
